{
  "source": "patent US20070098864A1",
  "about": "“PROCESS FOR PREPARING FORMULATIONS OF […] […] SPRAY FREEZING DRYING” (priority 2004, published 2007)",
  "key": {"[1]": {"assay": "Modulated differential scanning calorimetry (glass transition temperature) of THC/inulin powders", "assay_type": "physicochemical", "details": "MDSC", "description": "Thermal behaviour of the spray freeze dried powders was determined by modulated differential scanning calorimetry (MDSC) on a differential scanning calorimeter (DSC2920, TA Instruments, Gent, Belgium). A modulation amplitude of 0.318° C., a modulation period of 60 seconds and a heating rate of 2° C./min was used. Calibration was performed with indium. Standard aluminium sample pans were used. During measurement, the sample cell was purged with nitrogen at a flow rate of 35 mL/min. Before scanning, the sample pan was heated at 2° C./min to 50° C. to remove all residual moisture. Subsequently, the sample was cooled to −20° C. and then scanned up to 180° C. The glass transition temperature (Tg) was defined as the inflection point of the change in specific heat in the reversing signal."}, "[2]": {"assay": "Stability study of THC (HPLC) in climate chambers", "description": "To investigate the degradation of pure THC, 20 mL glass vials were charged with 70 μL of a solution of THC in methanol containing 2.52 mg THC. They were left overnight under a flow of dry nitrogen to allow for methanol evaporation. The resulting thin layers of THC spread over the bottom of the vials (4.5 cm^2). Spray freeze dried and freeze dried material containing THC were weighed in vials. All samples were stored in climate chambers of 20° C./45% RH and 60° C./8% RH. Samples (n=3) were taken at different time intervals and analysed by means of HPLC using the method described by van Drooge et al. (Eur. J. Pharm. Sci. 2004, 21, 511-518). Briefly, samples were extracted with methanol. A Waters 717+ autosampler was used to inject 50 μL of supernatant on a precolumn (HPLC precolum inserts, μBondapak C18 Guardpak) followed by a Chrompack Nucleosil 100 C18 column (4.6×250 mm). Absorbance at 214 nm was measured with a UV detector (Shimadzu SPD-M6A). Chromatograms and peak areas were analysed with an integrator (waters 741 Data Module) and Kromasystem 2000 software. The flow rate of the eluens (methanol/water 92/8 (v/v) plus 5 drops concentrated sulphuric acid per litre eluens) was set at 1.0 mL/min. […] In every series of HPLC-runs some calibration samples were included."}},
  "data": [
    {"smiles": "CCCCCc1cc(O)c2c(c1)OC(C)(C)[C@@H]1CCC(C)=C[C@@H]21", "note": "[pure THC, Δ^9-tetrahydrocannabinol]", "values": [
      {"measurement": "Tg", "setting": "[1]; pure substance", "value": 9.3, "unit": "°C"},
      {"measurement": "1st Tg (° C.)", "setting": "[1]; spray freeze dried, Tg of THC", "value": "9.3 ± 1.0", "unit": "°C"},
      {"measurement": "time to complete degradation", "setting": "[2]; exposed to air of 20° C./45% RH", "value": "≤ 50", "unit": "days"},
      {"measurement": "time to complete degradation", "setting": "[2]; storage at 60° C./8% RH", "value": "≤ 15", "unit": "days"}
    ]}
  ]
}
